Test results from PMC10208276, “A Very Long-acting Exatecan and Its Synergism with DNA Damage Response Inhibitors” (Cancer Research Communications, 2023).
Entries after “also recorded” stand apart in the source; their conditions may differ. Where two headings read alike, the source gives them in different places.

Tests used:
[1] = cited from earlier work
tumor cells = test system: tumor cells; design: method as in PMID 12234607; details: cited from earlier work
drug-efflux pumps = details: cited from earlier work
[2] = test system: BRCA1-deficient MX-1 TNBC xenografts; design: method as in PMID 9685056; details: total dose of 25 and 75 mg (57 and 170 μmol)/kg, four times at 4-day intervals, at 28 days; cited from earlier work
[3] = test system: BRCA1-deficient MX-1 TNBC xenografts; assay: Antitumor activity of PEG-Exa in the MX-1 murine xenograft, alone and combined with TLZ or VX970; type: in vivo, female scid mice
Excerpt: Animals were housed at Murigenics.
To assess the interaction of the drug combination, we used an additivity index determined as TGcalc/TGobsd where […] and TGcalc is the product of TGobsd values of the individual drugs. Here, an index <1 indicates infra-additive, an index of 1 indicates additivity and an index >1 indicates a supra-additive or synergistic interaction.
We measured the effects of a combination of PEG-Exa with the PARPi TLZ and the ATRi VX970 on growth of MX-1 xenografts. […] To assess the interaction of a drug combination, we used an additivity index ([28]) determined as TGcalc/TGobsd where TGcalc is the product of TGobsd values of the individual drugs and TGobsd is the observed tumor growth in the presence of both drug. Here, an index <1 indicates infra-additive, an index of 1 indicates additivity and an index >1 indicates a supra-additive or synergistic interaction.

[4] = test system: relapsed small cell lung cancer; design: method as in PMID 33848478; details: combination of topotecan with the ATRi VX-970, 5-day interval of a 21-day cycle; cited from earlier work
[5] = test system: patient-derived triple-negative breast cancer (TNBC) xenografts; design: method as in PMID 32075943; details: cited from earlier work
[6] = VX970 64 μmol/kg PO, 4 consecutive days a week, alone
[7] = single intraperitoneal doses of 10 and 15 μmol/kg

Compound: CC[C@@]1(O)C(=O)OCc2c1cc1n(c2=O)Cc2c-1nc1cc(F)c(C)c3c1c2[C@@H](N)CC3 [Exa, exatecan]
- t1/2 ([1]; in humans): approximately 10 hours
- increase of inhibitory potency upon prolonged exposure (tumor cells): about 80 fold
- substrate for drug-efflux pumps (drug-efflux pumps): does not appear to be a substrate
- effect on MX-1 TNBC xenografts [2]: regression

Compound: CNCc1ccc(-c2cc(-c3nc(-c4ccc(S(=O)(=O)C(C)C)cc4)cnc3N)on2)cc1 [VX970]
- AUC of median MX-1 Tumor volume ([3]; VX970 16 μmol/kg alone): 0.98 Fraction of vehicle control
- AUC of median MX-1 Tumor volume ([3]; VX970 32 μmol/kg alone): 0.96 Fraction of vehicle control
- TGI [3, 6]: 0
- TGobsd, AUC of median MX-1 Tumor volume [3, 6]: 1.04 Fraction of vehicle control
- effect on growth of MX-1 xenografts ([3]; VX970 alone, 64 μmol/kg for 4 consecutive days a week): do not affect tumor growth; also recorded: no effect

Compound: PEG40kDa-[exatecan]4 (Mod = 4-Cl-C6H4-SO2-) [3A]
- potency in growth suppression relative to PLX038A (PEG-SN-38) ([3]; […] PEG-Exa nearly identical to 15 μmol/kg PLX038A): approximately 6 fold
- dose lower than dose of free Exa required to suppress MX-1 xenografts ([3]; single 10 μmol/kg versus total 57 μmol/kg free Exa (ref 26)): 6 fold
- dose lower than dose of free Exa required to suppress MX-1 xenografts ([3]; single 10 μmol/kg versus total 170 μmol/kg free Exa (ref 26)): 18 fold
- duration of tumor growth suppression ([3]; single dose of 10 μmol/kg): over 40 days
- tumor growth of MX-1 xenografts ([3]; single dose of 10 μmol/kg): complete suppression of tumor growth
- duration of complete growth inhibition [3, 7]: > 48 days
- growth of tumors [3, 7]: complete growth inhibition

Compound: CC[C@@]1(O)C(=O)OCc2c1cc1n(c2=O)Cc2cc3c(CN(C)C)c(O)ccc3nc2-1 [topotecan]
- ORR [4]: 36%

Compound: Cn1ncnc1[C@H]1c2n[nH]c(=O)c3cc(F)cc(c23)N[C@@H]1c1ccc(F)cc1 [TLZ, talazoparib]
- TGobsd ([3]; 0.4 μmol (0.15 mg)/kg orally every day, Fig. 4A): 0.71

Compound: CCc1c2c(nc3ccc(O)cc13)-c1cc3c(c(=O)n1C2)COC(=O)[C@]3(O)CC [SN-38]
- apparent t1/2 ([1]; SN-38 formed from CPT-11): approximately 12 hours

Compound: CCc1c2c(nc3ccc(OC(=O)N4CCC(N5CCCCC5)CC4)cc13)-c1cc3c(c(=O)n1C2)COC(=O)[C@]3(O)CC [irinotecan]
- responsive xenografts ([5]; xenografts containing both biomarkers): 100%
- response rate ([5]; xenografts with BRCAness): 50%
- response rate ([5]; xenografts with high SLFN11): 75%
